Experimental data: patent publication US7989480B2, “Aryl amino acid derivatives as inhibitors for treating inflammation” (Decode Genetics EHF, priority 2006, dated 2011)
Counter-ions that a name gives are not always drawn. Like-named read-outs stand apart in the source and are kept apart here.

Key:
[1] = molecular target: T1, LTA4H (leukotriene A4 hydrolase) (Homo sapiens, UniProt P09960); test: LTA4H enzyme inhibition (EnzIC50); format: biochemical
T1 sequence (P09960 1-611): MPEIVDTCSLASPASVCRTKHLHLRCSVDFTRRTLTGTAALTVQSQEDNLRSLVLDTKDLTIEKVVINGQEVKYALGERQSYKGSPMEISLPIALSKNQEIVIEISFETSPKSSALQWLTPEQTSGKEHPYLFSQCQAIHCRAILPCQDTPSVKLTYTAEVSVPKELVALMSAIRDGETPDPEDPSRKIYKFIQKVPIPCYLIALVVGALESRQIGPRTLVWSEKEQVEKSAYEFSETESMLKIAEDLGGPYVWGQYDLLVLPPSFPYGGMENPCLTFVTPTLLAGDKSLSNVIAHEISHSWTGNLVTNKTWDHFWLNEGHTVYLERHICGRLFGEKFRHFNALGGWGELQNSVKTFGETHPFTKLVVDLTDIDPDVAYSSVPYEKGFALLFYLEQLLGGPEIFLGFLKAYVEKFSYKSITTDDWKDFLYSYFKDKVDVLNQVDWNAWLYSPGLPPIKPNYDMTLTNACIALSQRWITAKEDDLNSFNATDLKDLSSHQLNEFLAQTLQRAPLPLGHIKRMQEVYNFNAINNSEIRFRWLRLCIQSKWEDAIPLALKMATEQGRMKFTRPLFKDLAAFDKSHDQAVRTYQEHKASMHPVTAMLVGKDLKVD

[2] = system: hWB; test: hWB assay; format: cell-based; details: Homo sapiens
[3] = system: colitis symptoms; details: eight weeks of treatment, primate model; cited from earlier work
[4] = system: ionophore-induced LTB4 production; details: oral administration, rat peritoneum in vivo; cited from earlier work
[5] = system: ionophore-induced LTB4 production; details: oral administration, mouse blood ex vivo; cited from earlier work

IC50 [1] [µM] | IC50 [2] [µM] | SMILES | also measured
< 5 |  | COc1ccc(Oc2ccc(C[C@H](N)CO)cc2)cc1 [Example 19, (S)-2-Amino-3-[4-(4-methoxyphenoxy)-phenyl]-propan-1-ol hydrochloric acid salt] | 
< 5 | < 5 | N[C@H](CO)Cc1ccc(Oc2ccc(Oc3ccc(-c4nccs4)cc3)cc2)cc1 [Example 12, (S)-2-Amino-3-{4-[4-(4-thiazol-2-yl-phenoxy)-phenoxy]-phenyl}-propan-1-ol] | 
< 5 |  | N[C@@H](Cc1ccc(Oc2ccc(Oc3ccccc3)cc2)cc1)C(O)C(=O)O (stereo partly drawn) [Example 10, (3S)-3-Amino-2-hydroxy-4-[4-(4-phenoxyphenoxy)phenyl]butanoic acid hydrochloride] | 
< 5 | < 5 | N[C@H](CNO)Cc1ccc(Oc2ccc(Oc3ccc(Cl)cc3)cc2)cc1 [Example 14] | 
< 5 | < 5 | CC(=O)N(O)C[C@@H](N)Cc1ccc(Oc2ccc(Cl)cc2)cc1 [Example 22, N-{(S)-2-amino-3-[4-(4-chloro-phenoxy)-phenyl]-propyl}-N-hydroxy-acetamide HCl salt] | 
< 5 | < 5 | N[C@H](CO)Cc1ccc(Oc2ccc(Cc3ccccc3)cc2)cc1 [Example 20, (S)-2-Amino-3-[4-(4-benzylphenoxy)-phenyl]-propan-1-ol hydrochloric acid salt] | 
< 5 |  | N[C@@H](Cc1ccc(Oc2ccc(Oc3ccc(-c4nccs4)cc3)cc2)cc1)C(=O)O [Example 11, (S)-2-Amino-3-{4-[4-(4-thiazol-2-yl-phenoxy)-phenoxy]-phenyl}-propionic acid] | 
< 5 |  | N[C@H](CNO)Cc1ccc(Oc2ccc(Cl)cc2)cc1 [Example 21, N-{(S)-2-amino-3-[4-(4-chloro-phenoxy)-phenyl]-propyl}-hydroxyamine HCl salt] | 
< 5 |  | N[C@@H](C(=O)O)c1ccc(Oc2ccc(Cc3ccccc3)cc2)cc1 [Example 15, (R)-Amino-[4-(4-benzyl-phenoxy)-phenyl]-acetic acid hydrochloride] | 

Second part, the compound before the results:

SMILES | IC50 [1] [µM] | IC50 [2] [µM] | also measured
N[C@@H](Cc1ccc(Oc2ccc(Cc3ccc(Cl)cc3)cc2)cc1)C(=O)O [Example 5, S)-2-Amino-3-{4-[4-(4-chloro-benzyl)-phenoxy]-phenyl}-propionic acid hydrochloride] | 5 to 20 |  | 
COC(=O)[C@H](N)Cc1ccc(Oc2ccc(C(=O)c3ccccc3)cc2)cc1 [Example 2, (R)-2-Amino-3-[4-(4-benzoyl-phenoxy)-phenyl]-propionic acid methyl ester hydrochloride] | < 5 |  | 
N[C@@H](CO)Cc1ccc(Oc2ccc(Oc3ccccc3)cc2)cc1 [Example 3, (R)-2-Amino-3-[4-(4-phenoxy-phenoxy)-phenyl]-propan-1-ol hydrochloride] | < 5 |  | 
CN[C@H](CO)Cc1ccc(Oc2ccc(Cc3ccccc3)cc2)cc1 [Example 9, (2S)-3-[4-(4-Benzylphenoxy)phenyl]-2-(methylamino)propan-1-ol hydrochloride] | 5 to 20 |  | 
N[C@H](CO)Cc1ccc(Oc2ccc(Oc3ccccc3)cc2)cc1 [Example 4, (S)-2-Amino-3-[4-(4-phenoxy-phenoxy)-phenyl]-propan-1-ol hydrochloride] | < 5 | 5 to 20 | 
N[C@@H](Cc1ccc(Oc2ccc(Oc3ccccc3)cc2)cc1)C(=O)O [Example 6, (2S)-2-Amino-3-[4-(4-phenoxyphenoxy)phenyl]propanoic acid hydrochloride] | < 5 | < 5 | 
CN[C@H](CO)Cc1ccc(Oc2ccc(Oc3ccccc3)cc2)cc1 [Example 8, (2S)-2-(Methylamino)-3-[4-(4-phenoxyphenoxy)phenyl]propan-1-ol hydrochloride] | 5 to 20 |  | 
COC(=O)[C@H](N)Cc1ccc(Oc2ccc(Oc3ccccc3)cc2)cc1 [Example 1, (R)-2-Amino-3-[4-(4-phenoxy-phenoxy)-phenyl]-propionic acid methyl ester hydrochloride] | 5 to 20 |  | 
CN(CCCOc1ccc(Cc2ccccc2)cc1)CCC(=O)O.Cl [SC57461] |  |  | colitis symptoms [3]: significantly improved colitis symptoms; inhibition of ionophore-induced LTB4 production [4]: inhibition of ionophore-induced LTB4 production; inhibition of ionophore-induced LTB4 production [5]: inhibition of ionophore-induced LTB4 production
